Laboratory results taken from PMC9080233, “Synthesis and biological evaluation of novel quinolone derivatives dual targeting histone deacetylase and tubulin polymerization as antiproliferative agents” (RSC Advances, 2018).
Like-named read-outs stand apart in the source and are kept apart here.

Experiments:
human recombinant HDAC1 = molecular target: T1, human recombinant HDAC1 (Homo sapiens, UniProt Q13547); test: HDAC activity assay (fluorogenic HDAC assay kit), HDAC1; format: biochemical; conditions: for IC50: human recombinant HDAC1, 37 °C, 30 min
T1 construct: purchased BPS Bioscience, CA

human recombinant HDAC2 = molecular target: T2, human recombinant HDAC2 (Homo sapiens, UniProt Q92769); test: HDAC activity assay (fluorogenic HDAC assay kit), HDAC2; format: biochemical; conditions: for IC50: human recombinant HDAC2, 37 °C, 30 min
T2 construct: purchased BPS Bioscience, CA

human recombinant HDAC6 = molecular target: T3, human recombinant HDAC6 (Homo sapiens, UniProt Q9UBN7); test: HDAC activity assay (fluorogenic HDAC assay kit), HDAC6; format: biochemical; conditions: for IC50: human recombinant HDAC6, 37 °C, 30 min; for Selectivity index HDAC6/1: ratio of IC50 HDAC1 to IC50 HDAC6; for Selectivity index HDAC6/2: ratio of IC50 HDAC2 to IC50 HDAC6;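 for all read-outs here: underlying HDAC activity read as fluorescence, excitation 350 nm and emission 440 nm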
T3 construct: purchased BPS Bioscience, CA
T3 sequence (Q9UBN7 1-1215): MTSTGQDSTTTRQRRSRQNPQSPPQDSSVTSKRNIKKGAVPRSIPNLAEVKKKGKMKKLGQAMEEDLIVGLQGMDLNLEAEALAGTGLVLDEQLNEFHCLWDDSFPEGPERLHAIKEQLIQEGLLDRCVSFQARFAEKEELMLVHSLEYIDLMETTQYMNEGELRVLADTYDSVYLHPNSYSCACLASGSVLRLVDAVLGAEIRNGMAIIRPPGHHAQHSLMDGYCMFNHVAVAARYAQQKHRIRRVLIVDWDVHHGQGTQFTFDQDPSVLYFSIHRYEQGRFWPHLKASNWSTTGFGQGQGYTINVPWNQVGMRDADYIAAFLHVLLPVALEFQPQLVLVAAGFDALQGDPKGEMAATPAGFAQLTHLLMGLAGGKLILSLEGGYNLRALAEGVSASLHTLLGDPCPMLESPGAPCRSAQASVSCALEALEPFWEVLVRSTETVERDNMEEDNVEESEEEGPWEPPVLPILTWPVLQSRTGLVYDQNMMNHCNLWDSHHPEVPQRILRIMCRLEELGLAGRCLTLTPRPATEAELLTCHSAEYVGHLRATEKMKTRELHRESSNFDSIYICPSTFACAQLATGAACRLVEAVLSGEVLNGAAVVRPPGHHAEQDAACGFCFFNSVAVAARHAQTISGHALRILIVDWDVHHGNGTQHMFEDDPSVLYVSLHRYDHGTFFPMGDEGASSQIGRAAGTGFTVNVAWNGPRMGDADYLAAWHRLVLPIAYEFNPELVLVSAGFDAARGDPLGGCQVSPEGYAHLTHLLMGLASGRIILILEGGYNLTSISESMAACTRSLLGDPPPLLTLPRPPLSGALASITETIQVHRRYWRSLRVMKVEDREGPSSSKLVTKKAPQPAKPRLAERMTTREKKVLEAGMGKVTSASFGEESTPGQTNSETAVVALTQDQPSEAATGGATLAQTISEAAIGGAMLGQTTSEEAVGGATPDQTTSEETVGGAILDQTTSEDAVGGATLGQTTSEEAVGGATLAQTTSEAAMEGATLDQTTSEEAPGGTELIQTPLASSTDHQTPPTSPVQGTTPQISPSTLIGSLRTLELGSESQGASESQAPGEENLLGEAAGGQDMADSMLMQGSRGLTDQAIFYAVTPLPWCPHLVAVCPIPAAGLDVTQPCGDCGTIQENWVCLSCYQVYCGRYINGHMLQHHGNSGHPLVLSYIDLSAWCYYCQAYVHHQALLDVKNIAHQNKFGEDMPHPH

[1] = tested on: human lung adenocarcinoma cells A549; test: Antiproliferative activity, CCK-8 assay, A549; format: cell-based; conditions: CCK-8, 72 hours, mean ± SD
liver cancer cells HepG2 = test: Antiproliferative activity, CCK-8 assay, HepG2; format: cell-based; conditions: Homo sapiens, CCK-8, 72 hours, mean ± SD
[2] = tested on: breast cancer cells MCF-7; test: Antiproliferative activity, CCK-8 assay, MCF-7; format: cell-based; conditions: Homo sapiens, MCF7; CCK-8, 72 hours; mean ± SD
[3] = tested on: prostate cancer cells PC-3; test: Antiproliferative activity, CCK-8 assay, PC-3; format: cell-based; conditions: Homo sapiens; CCK-8, 72 hours; mean ± SD
[4] = tested on: human cervical carcinoma cells HeLa; test: Antiproliferative activity, CCK-8 assay, HeLa; format: cell-based; conditions: read-out: IC50 HeLa
Description: Antitumor activities in vitro of synthetic compounds were measured using CCK-8 Assay Kit (BPS Bioscience, CA) according to the manufacturer's protocol. Cells were plated into 96-well plates with appropriate test compounds for 72 hours. Control cells were treated with serum free medium. Then CCK-8 solution was added to each well to determine cell viability. The IC50 values were calculated according to the dose-dependent curves (Origin software). IC50 values were determined using nonlinear regression analysis.

healthy MCF-10A cells = test: Toxicity to healthy cells, CCK-8 assay, MCF-10A; format: cell-based; conditions: for IC50: Homo sapiens, MCF-10A, healthy cells, CCK-8, 72 hours, >100 = not determinable up to highest concentrations tested
tubulin = test: Tubulin polymerization assay; format: biochemical; conditions: in words
[5] = amide group of 9c replaced with ester group

T2 sequence (Q92769 whole entry): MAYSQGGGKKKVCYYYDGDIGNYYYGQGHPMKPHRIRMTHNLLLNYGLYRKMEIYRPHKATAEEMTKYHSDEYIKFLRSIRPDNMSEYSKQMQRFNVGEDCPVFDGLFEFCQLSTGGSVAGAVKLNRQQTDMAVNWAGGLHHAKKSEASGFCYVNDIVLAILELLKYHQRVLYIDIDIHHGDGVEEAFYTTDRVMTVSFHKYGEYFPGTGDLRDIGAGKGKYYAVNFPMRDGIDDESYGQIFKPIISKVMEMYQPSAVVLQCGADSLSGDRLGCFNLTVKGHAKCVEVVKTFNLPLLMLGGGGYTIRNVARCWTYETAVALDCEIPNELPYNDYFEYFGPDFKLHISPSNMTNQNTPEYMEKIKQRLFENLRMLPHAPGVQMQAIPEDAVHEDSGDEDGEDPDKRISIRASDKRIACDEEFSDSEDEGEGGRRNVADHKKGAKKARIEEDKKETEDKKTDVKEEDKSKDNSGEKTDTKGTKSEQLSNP
T1 sequence (Q13547 whole entry): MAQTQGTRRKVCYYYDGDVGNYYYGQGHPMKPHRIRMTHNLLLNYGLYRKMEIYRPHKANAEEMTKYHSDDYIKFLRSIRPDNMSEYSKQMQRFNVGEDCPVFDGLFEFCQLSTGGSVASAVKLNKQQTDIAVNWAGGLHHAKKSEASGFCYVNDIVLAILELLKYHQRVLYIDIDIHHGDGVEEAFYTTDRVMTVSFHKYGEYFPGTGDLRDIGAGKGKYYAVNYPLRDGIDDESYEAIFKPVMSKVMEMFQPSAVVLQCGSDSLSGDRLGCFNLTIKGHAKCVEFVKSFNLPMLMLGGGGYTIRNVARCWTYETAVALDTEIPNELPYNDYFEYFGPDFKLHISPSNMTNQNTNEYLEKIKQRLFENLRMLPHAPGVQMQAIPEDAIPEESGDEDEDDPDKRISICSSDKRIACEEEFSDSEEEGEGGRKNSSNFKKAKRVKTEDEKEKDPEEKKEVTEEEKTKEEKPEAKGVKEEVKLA
tubulin, sequence (P02550 whole entry): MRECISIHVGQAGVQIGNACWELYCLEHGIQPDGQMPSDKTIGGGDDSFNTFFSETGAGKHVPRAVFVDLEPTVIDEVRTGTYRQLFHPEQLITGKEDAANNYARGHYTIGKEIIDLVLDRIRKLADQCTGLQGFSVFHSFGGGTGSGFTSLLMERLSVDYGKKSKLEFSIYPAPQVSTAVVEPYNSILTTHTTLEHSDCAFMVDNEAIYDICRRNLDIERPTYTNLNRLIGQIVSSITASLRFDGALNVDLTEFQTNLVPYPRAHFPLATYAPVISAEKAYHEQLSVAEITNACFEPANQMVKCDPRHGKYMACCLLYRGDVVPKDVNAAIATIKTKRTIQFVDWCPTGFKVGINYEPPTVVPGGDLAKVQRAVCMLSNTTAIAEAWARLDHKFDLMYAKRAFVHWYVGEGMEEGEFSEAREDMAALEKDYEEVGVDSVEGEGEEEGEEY
tubulin, sequence (P02554 whole entry, further chain): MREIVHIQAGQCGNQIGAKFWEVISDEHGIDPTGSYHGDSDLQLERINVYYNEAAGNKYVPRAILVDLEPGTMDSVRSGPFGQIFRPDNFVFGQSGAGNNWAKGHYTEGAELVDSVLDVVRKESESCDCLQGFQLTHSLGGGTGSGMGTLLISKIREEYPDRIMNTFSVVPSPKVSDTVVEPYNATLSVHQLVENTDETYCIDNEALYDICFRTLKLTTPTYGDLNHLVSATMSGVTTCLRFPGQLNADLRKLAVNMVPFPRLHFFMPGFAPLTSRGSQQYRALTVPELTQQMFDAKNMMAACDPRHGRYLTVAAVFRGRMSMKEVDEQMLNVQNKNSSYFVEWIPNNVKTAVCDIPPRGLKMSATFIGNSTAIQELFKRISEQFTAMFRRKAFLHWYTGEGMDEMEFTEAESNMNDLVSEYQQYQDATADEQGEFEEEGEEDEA

Row | IC50 ([4]; 72 h) | Compound | IC50 (human recombinant HDAC1) | IC50 (human recombinant HDAC2) | IC50 (human recombinant HDAC6) | Selectivity index HDAC6/1 (human recombinant HDAC6) | Selectivity index HDAC6/2 (human recombinant HDAC6) | IC50 [1] | IC50 (liver cancer cells HepG2) | IC50 [2] | IC50 [3] | IC50 ([4]; CCK-8, 72 hours, mean ± SD) | IC50 (healthy MCF-10A cells) | melting point | fold reduced potency anti-HDAC1 relative to 9c (human recombinant HDAC1; [5]) | fold reduced potency anti-HDAC2 relative to 9c (human recombinant HDAC2; [5]) | fold reduced potency anti-HDAC6 relative to 9c (human recombinant HDAC6; [5]) | tubulin polymerization inhibition compared with reference compound (tubulin) | toxicity to healthy MCF-10A cells (healthy MCF-10A cells; in words) | toxicity to healthy VERO cells (healthy MCF-10A cells; in words, conclusions)
1 |  | C[C@H]1COc2c(N3CCN(C)CC3)c(F)cc3c(=O)c(C(=O)OCc4cn(CCCCCC(=O)O)nn4)cn1c23 [Compound 6a, (S)-6-(4-(((9-fluoro-3-methyl-10-(4-methylpiperazin-1-yl)-7-oxo-3,7-dihydro-2H-[1,4]oxazino[2,3,4-ij]quinoline-6-carbonyl)oxy)methyl)-1H-1,2,3-triazol-1-yl)hexanoic acid] | 8.2 ± 1.08 µM | 10.4 ± 1.87 µM | 2.1 ± 0.68 µM | 3.9 | 4.9 | 14.2 ± 1.28 µM | 13.4 ± 1.36 µM | 10.3 ± 1.12 µM | 16.5 ± 1.63 µM | 12.3 ± 1.16 µM | > 100 µM | 175 to 178 °C |  |  |  |  |  | 
2 |  | C[C@H]1COc2c(N3CCN(C)CC3)c(F)cc3c(=O)c(C(=O)OCc4cn(CCCCCCC(=O)O)nn4)cn1c23 [Compound 6b, (S)-7-(4-(((9-fluoro-3-methyl-10-(4-methylpiperazin-1-yl)-7-oxo-3,7-dihydro-2H-[1,4]oxazino[2,3,4-ij]quinoline-6-carbonyl)oxy)methyl)-1H-1,2,3-triazol-1-yl)heptanoic acid] | 5.7 ± 0.71 µM | 6.2 ± 0.92 µM | 1.4 ± 0.35 µM | 4.1 | 4.4 | 10.7 ± 1.08 µM | 10.5 ± 1.17 µM | 8.9 ± 0.54 µM | 12.9 ± 1.25 µM | 9.7 ± 0.83 µM | > 100 µM | 183 to 185 °C |  |  |  |  |  | 
3 |  | C[C@H]1COc2c(N3CCN(C)CC3)c(F)cc3c(=O)c(C(=O)OCc4cn(CCCCCCCC(=O)O)nn4)cn1c23 [Compound 6c, (S)-8-(4-(((9-fluoro-3-methyl-10-(4-methylpiperazin-1-yl)-7-oxo-3,7-dihydro-2H-[1,4]oxazino[2,3,4-ij]quinoline-6-carbonyl)oxy)methyl)-1H-1,2,3-triazol-1-yl)octanoic acid] | 6.9 ± 0.83 µM | 7.9 ± 0.76 µM | 4.7 ± 0.51 µM | 1.5 | 1.7 | 13.6 ± 1.16 µM | 12.7 ± 1.09 µM | 10.5 ± 1.22 µM | 15.8 ± 1.43 µM | 14.6 ± 1.08 µM | > 100 µM | 196 to 199 °C |  |  |  |  |  | 
4 |  | C[C@H]1COc2c(N3CCN(C)CC3)c(F)cc3c(=O)c(C(=O)NCc4cn(CCCCCC(=O)O)nn4)cn1c23 [Compound 7a, (S)-6-(4-((9-fluoro-3-methyl-10-(4-methylpiperazin-1-yl)-7-oxo-3,7-dihydro-2H-[1,4]oxazino[2,3,4-ij]quinoline-6-carboxamido)methyl)-1H-1,2,3-triazol-1-yl)hexanoic acid] | 4.6 ± 0.52 µM | 7.3 ± 0.93 µM | 1.9 ± 0.47 µM | 2.4 | 3.8 | 12.8 ± 1.33 µM | 14.8 ± 1.27 µM | 9.7 ± 1.04 µM | 15.8 ± 1.48 µM | 13.5 ± 1.31 µM | > 100 µM | 179 to 182 °C |  |  |  |  |  | 
5 |  | C[C@H]1COc2c(N3CCN(C)CC3)c(F)cc3c(=O)c(C(=O)NCc4cn(CCCCCCCC(=O)O)nn4)cn1c23 [Compound 7c, (S)-8-(4-((9-fluoro-3-methyl-10-(4-methylpiperazin-1-yl)-7-oxo-3,7-dihydro-2H-[1,4]oxazino[2,3,4-ij]quinoline-6-carboxamido)methyl)-1H-1,2,3-triazol-1-yl)octanoic acid] | 3.8 ± 0.46 µM | 6.9 ± 0.55 µM | 2.7 ± 0.36 µM | 1.4 | 2.6 | 11.9 ± 1.06 µM | 11.3 ± 1.24 µM | 12.7 ± 1.18 µM | 13.6 ± 1.29 µM | 10.6 ± 0.24 µM | > 100 µM | 203 to 205 °C |  |  |  |  |  | 
6 |  | C[C@H]1COc2c(N3CCN(C)CC3)c(F)cc3c(=O)c(C(=O)OCc4cn(CCCCCC(=O)NO)nn4)cn1c23 [Compound 8a, (S)-(1-(6-(hydroxyamino)-6-oxohexyl)-1H-1,2,3-triazol-4-yl)methyl-9-fluoro-3-methyl-10-(4-methylpiperazin-1-yl)-7-oxo-3,7-dihydro-2H-[1,4]oxazino[2,3,4-ij]quinoline-6-carboxylate] | 0.075 ± 0.031 µM | 0.134 ± 0.049 µM | 0.043 ± 0.053 µM | 1.7 | 3.1 | 8.9 ± 0.72 µM | 9.8 ± 0.87 µM | 3.5 ± 0.51 µM | 12.8 ± 1.42 µM | 7.7 ± 0.64 µM | > 100 µM |  |  |  |  |  |  | 
7 |  | C[C@H]1COc2c(N3CCN(C)CC3)c(F)cc3c(=O)c(C(=O)OCc4cn(CCCCCCCC(=O)NO)nn4)cn1c23 [Compound 8c, (S)-(1-(8-(hydroxyamino)-8-oxooctyl)-1H-1,2,3-triazol-4-yl)methyl-9-fluoro-3-methyl-10-(4-methylpiperazin-1-yl)-7-oxo-3,7-dihydro-2H-[1,4]oxazino[2,3,4-ij]quinoline-6-carboxylate] | 0.104 ± 0.053 µM | 0.065 ± 0.016 µM | 0.052 ± 0.026 µM | 2.0 | 1.3 | 7.4 ± 0.44 µM | 5.7 ± 0.49 µM | 2.3 ± 0.27 µM | 10.4 ± 1.13 µM | 6.8 ± 0.56 µM | > 100 µM |  | at least 2 fold | at least 2 fold | at least 2 fold |  |  | 
8 |  | C[C@H]1COc2c(N3CCN(C)CC3)c(F)cc3c(=O)c(C(=O)NCc4cn(CCCCCC(=O)NO)nn4)cn1c23 [Compound 9a, (S)-9-Fluoro-N-((1-(6-(hydroxyamino)-6-oxohexyl)-1H-1,2,3-triazol-4-yl)methyl)-3-methyl-10-(4-methylpiperazin-1-yl)-7-oxo-3,7-dihydro-2H-[1,4]oxazino[2,3,4-ij]quinoline-6-carboxamide] | 0.073 ± 0.045 µM |  | 0.049 ± 0.023 µM | 1.5 | 1.7 | 5.6 ± 0.59 µM | 6.6 ± 0.78 µM | 1.1 ± 0.26 µM | 9.6 ± 1.05 µM | 5.2 ± 0.82 µM | > 100 µM |  |  |  |  | equipotent to reference compound CA-4 |  | 
9 |  | C[C@H]1COc2c(N3CCN(C)CC3)c(F)cc3c(=O)c(C(=O)NCc4cn(CCCCCCCC(=O)NO)nn4)cn1c23 [Compound 9c, (S)-9-Fluoro-N-((1-(8-(hydroxyamino)-8-oxooctyl)-1H-1,2,3-triazol-4-yl)methyl)-3-methyl-10-(4-methylpiperazin-1-yl)-7-oxo-3,7-dihydro-2H-[1,4]oxazino[2,3,4-ij]quinoline-6-carboxamide] | 0.038 ± 0.014 µM | 0.076 ± 0.022 µM | 0.041 ± 0.025 µM | 0.9 | 1.9 | 4.2 ± 0.38 µM | 3.6 ± 0.55 µM | 1.1 ± 0.23 µM | 8.7 ± 0.62 µM | 3.5 ± 0.24 µM | > 100 µM |  |  |  |  |  |  | 
10 | 2.9 ± 0.18 µM | O=C(CCCCCCC(=O)Nc1ccccc1)NO [SAHA, vorinostat, reference compound] |  |  |  |  |  |  |  |  |  |  |  |  |  |  |  |  | considerable toxicity | some extent inherent toxicity
